System: lashes and adjacent hairs
Test: Observation of lashes and adjacent hairs in glaucoma patients treated in one eye
Format: in vivo
Excerpt: In the course of treating patients having glaucoma, treatment may only be appropriate in one eye. […] The lash appearance on the lids of the treated eyes would have appeared quite attractive if it represented a bilateral phenomenon. As a result of its asymmetric nature, the long lashes on one side could be construed as disturbing from a cosmetic standpoint. A systemic examination was preformed as a result of the asymmetric phenomenon. It soon became apparent that this altered appearance was not an isolated finding. […] Definite differences could be identified to varying degrees in the lashes and adjacent hairs of all patients who were taking the drug on a unilateral basis for longer than 6 months.
The changes in the lashes were apparent on gross inspection in several patients once attention was focused on the issue. In those with light colored hair and lashes, the differences were only seen easily with the aid of the high magnification and lighting capabilities of the slit lamp biomicroscope. In the course of glaucoma follow-up examination, attention is generally immediately focused on the eye itself. As a result of the high power magnification needed only one eye is seen at a time and the eye is seen at a high enough power that the lashes are not in focus. […]

CCNC(=O)CCC/C=C\C[C@@H]1[C@@H](/C=C/[C@@H](O)CCc2ccccc2)[C@H](O)C[C@@H]1O [bimatoprost]
lash appearance in the treated eye versus the non-treated eye (glaucoma patient treated in one eye only): longer, thicker, and fuller
hair growth in treated versus control areas, multiple parameters of hair appearance (many subjects, unilateral treatment): hair growth is stimulated
